The values below come from PubChem BioAssay (NCI).

What all share (experiment): DTP human tumour cell line panel, 48 h
Assay [1] concerns IGROV1 ovarian.
In assay [2] the test system is K-562 leukemia.
For assay [3], the system named is MDA-N.
The test system of assay [4] is MDA-MB-231 breast.
Assay [5] relates to SNB-19 CNS.
Assay [6] deals with SN12C renal.
For assay [7], the system named is SK-MEL-28 melanoma.
For assay [8], the system named is HCT-116 colon.
Assay [9] relates to UO-31 renal.
In assay [10] the test system is MOLT-4 leukemia.
Assay [11] concerns HOP-62 NSCLC.
Assay [12] relates to HCC-2998 colon.
The test system of assay [13] is UACC-257 melanoma.
Assay [14] has as its system BT-549 breast.
The subject of assay [15] is PC-3 prostate.
The test system of assay [16] is NCI/ADR-RES ovarian.
The test system of assay [17] is SK-MEL-2 melanoma.
Assay [18] deals with UACC-62 melanoma.
Assay [19] has as its system SF-539 CNS.
The test system of assay [20] is HS 578T breast.

Structures are written as SMILES.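 How tested: cells in 96-well plates exposed to compound for 48 hours at five concentrations. TGI marks complete inhibition of growth.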 Some results are limits rather than exact numbers.

With `NCCC(=O)N[C@@H](Cc1cc(O)c(O)c(SCC(NC(=O)CC[C@H](N)C(=O)O)C(=O)NCC(=O)O)c1)C(=O)O` (some centres undefined), the TGI in assay [1], in assay [2], in assay [3], in assay [4], in [5] and in [6] was over 50 µM each time. For the same molecule, the TGI in assay [7], in assay [8], in assay [9], in [10], in assay [11] and in assay [12] was over 50 µM in each case. The TGI in [13], in assay [14], in [15], in assay [16], in [17] and in assay [18] was over 50 µM each time.

Regarding `O=S(=O)(c1ccccc1)C1(CCC2OCCO2)C=CC2(CC1)OCCO2` (centres undefined), the TGI in [1], in [2], in assay [3], in [4], in assay [5] and in [6] was over 100 µM each time. Moreover, the TGI in assay [7], in [8], in [9], in assay [10], in assay [11] and in assay [12] was over 100 µM in each case. The TGI in assay [13], in [14], in [16] and in assay [18] was over 100 µM in each case.

For the molecule `COc1cc(S(=O)(=O)Nc2nc(-c3ccc(N4C(=O)/C(=C/c5ccccc5[N+](=O)[O-])N=C4c4ccccc4)cc3)cs2)ccc1Cl`, the total growth inhibition concentration (TGI) in assay [1] is over 100 µM; in assay [2], over 100 µM; in assay [3] it was over 100 µM; in assay [4], 42.2 µM; in [5] it was over 100 µM; in assay [19], over 100 µM. Further, the TGI in assay [6], in assay [7], in [8], in assay [9], in assay [10] and in assay [11] was over 100 µM throughout. For the same molecule, the TGI in assay [13] is over 100 µM; in assay [14], 74.7 µM; in [15], over 100 µM; in assay [16] it was over 100 µM; in assay [17], over 100 µM; in assay [18], 92.8 µM.

As for `CN(CC(=O)O)c1ncc2c(n1)-c1ccccc1OC2`, the TGI in assay [1], in assay [2], in assay [3], in assay [4], in assay [5] and in assay [19] was over 100 µM throughout. Also, the TGI in assay [6], in assay [7], in assay [8], in [9], in assay [20] and in assay [10] was over 100 µM each time. The total growth inhibition concentration (TGI) in [13], in assay [15], in assay [16], in assay [17] and in [18] was over 100 µM each time.

In the case of `O=C(c1cc2c(c3ccccc13)NCCN=C2C(F)(F)F)C(F)(F)F`, the TGI in assay [1] was over 100 µM; in assay [2] it was 35.4 µM; in assay [3], over 100 µM; in assay [4], 51.4 µM; in assay [19] it was 54.9 µM; in assay [7] it was 47.8 µM. For the same molecule, the TGI in assay [8] is over 100 µM; in assay [9], over 100 µM; in assay [20] it was 40.6 µM; in assay [10], 38 µM; in assay [11], 53 µM; in assay [12] it was 33 µM. The total growth inhibition concentration (TGI) is 42.7 µM in assay [13], 33.5 µM in assay [15], over 100 µM in assay [16] and 44.1 µM in [17].

Turning to `CC(=O)O[C@H]1C(=O)[C@@]2(C)[C@H]([C@H](OC(=O)c3ccccc3)[C@]3(O)C[C@H](OC(=O)[C@H](O)[C@@H](NC(=O)C(C)(C)C)c4ccccc4)C(C)=C1C3(C)C)[C@]1(OC(C)=O)CO[C@@H]1C[C@@H]2O`, the TGI in assay [1] was over 10 µM; in [2], over 10 µM; in [4], over 10 µM; in assay [5], over 10 µM; in assay [19] it was 0.413 µM; in assay [6], over 10 µM. Also, the TGI in assay [7] was over 10 µM; in [8] it was over 3.23 µM; in [20], 0.389 µM; in assay [10], over 8.96 µM; in assay [11], over 10 µM; in assay [12] it was 0.44 µM. Besides, the TGI in assay [13] is over 10 µM; in assay [14], over 10 µM; in [15] it was 1.31 µM; in assay [16] it was over 10 µM; in assay [17] it was over 3.28 µM; in [18], over 10 µM.

For the molecule `CN(C)/C=N/NC(=O)/C(C#N)=C/N(C)C`, the TGI in assay [1], in assay [2], in [3], in assay [4], in assay [5] and in assay [19] was over 100 µM in each case. In addition, the TGI in [6], in assay [7], in assay [8], in assay [9], in assay [20] and in [10] was over 100 µM throughout. The TGI in assay [11], in [12], in assay [13], in assay [15], in assay [16] and in assay [17] was over 100 µM in each case. Moreover, the total growth inhibition concentration (TGI) in assay [18] was over 100 µM.

In the case of `CC(C)SC(NC(=O)C1C(C)(C)CCC1(C)C)C(=O)O` (centres undefined), the TGI in assay [1], in [2], in assay [3], in assay [4], in [5] and in assay [19] was over 100 µM throughout. In addition, the total growth inhibition concentration (TGI) in assay [6], in [7], in assay [8], in assay [9], in assay [20] and in [11] was over 100 µM in each case. Further, the TGI in [12], in assay [15], in assay [16], in assay [17] and in [18] was over 100 µM each time.

A word on the TGI: it is the concentration giving total growth inhibition.
